In patent publication US10508120B2, “TYK2 inhibitors and uses thereof” (Nimbus Lakshmi, Inc., priority 2017, dated 2019):
Like-named read-outs stand apart in the source and are kept apart here.

Key:
[1] = biological target: human TYK2 (JH2domain-pseudokinase) (Homo sapiens (Human), UniProt P29597); experiment: TYK2 JH2 Domain Binding Assay (KINOMEscan)
How it was run: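 Competition binding of an NFkB-DBD fusion of human TYK2 JH2 (G556–D888), expressed in HEK293 and used as crude extract at <0.1 nM, against immobilized ligand beads; 1 h at room temperature in PBS/Tween/DTT/BSA buffer, 0.9% DMSO.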

Tyk2 kinase domain (DH1) = Tyk2 kinase domain (DH1) (Homo sapiens (Human), UniProt P29597); experiment: Tyk2 Radioactive Kinase Assay; assay type: biochemical; conditions: for inhibition at 10 µM: read-out: Tyk2 JH1% Inhibition @ 10 μM
Chain of Tyk2 kinase domain (DH1) (P29597 897-1176): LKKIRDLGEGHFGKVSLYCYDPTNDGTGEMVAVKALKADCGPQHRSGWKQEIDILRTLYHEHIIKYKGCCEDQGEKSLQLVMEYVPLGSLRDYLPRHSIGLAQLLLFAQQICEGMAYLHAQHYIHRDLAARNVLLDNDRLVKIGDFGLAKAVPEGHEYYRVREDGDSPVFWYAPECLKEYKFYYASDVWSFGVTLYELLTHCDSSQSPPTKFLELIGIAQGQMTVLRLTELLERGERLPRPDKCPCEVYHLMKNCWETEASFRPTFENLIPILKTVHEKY
How it was run: (§1)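 Single-point screen: 10 μM test compound, radioactive kinase read-out, percent inhibition reported for each kinase domain.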

JAK2 kinase domain (JH1) = JAK2 kinase domain (JH1) (Homo sapiens (Human), UniProt O60674); experiment: JAK2 Radioactive Kinase Assay; assay type: biochemical; conditions: for inhibition at 10 µM: read-out: JAK2 JH1% Inhibition @ 10 μM
Chain of JAK2 kinase domain (JH1) (O60674 849-1124): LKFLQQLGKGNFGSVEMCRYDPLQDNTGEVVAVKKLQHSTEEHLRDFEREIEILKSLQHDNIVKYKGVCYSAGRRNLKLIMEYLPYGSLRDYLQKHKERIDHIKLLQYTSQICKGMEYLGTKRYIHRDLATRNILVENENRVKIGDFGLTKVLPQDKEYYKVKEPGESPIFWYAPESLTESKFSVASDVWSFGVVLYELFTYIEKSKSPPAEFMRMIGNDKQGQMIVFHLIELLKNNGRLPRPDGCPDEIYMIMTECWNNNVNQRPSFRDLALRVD
How it was run: as §1

Chain of human TYK2 (JH2domain-pseudokinase) (P29597 556-888): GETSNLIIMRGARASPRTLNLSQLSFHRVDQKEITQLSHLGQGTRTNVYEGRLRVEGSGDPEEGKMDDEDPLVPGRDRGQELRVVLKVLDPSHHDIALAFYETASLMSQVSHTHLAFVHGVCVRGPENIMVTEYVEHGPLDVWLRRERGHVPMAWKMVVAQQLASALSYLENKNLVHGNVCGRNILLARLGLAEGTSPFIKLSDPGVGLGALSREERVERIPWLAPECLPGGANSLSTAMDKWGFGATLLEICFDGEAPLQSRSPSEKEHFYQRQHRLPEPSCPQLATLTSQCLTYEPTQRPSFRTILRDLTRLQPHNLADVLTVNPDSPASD

Compound | Kd [1] [nM] | Tyk2 JH1% Inhibition @ 10 μM (Tyk2 kinase domain (DH1); 10 μM compound, 10 μM ATP) | JAK2 JH1% Inhibition @ 10 μM (JAK2 kinase domain (JH1); 10 μM compound, 10 μM ATP) | inhibition at 10 µM (Tyk2 kinase domain (DH1); compound at 10 μM, ATP 10 μM) [%] | inhibition at 10 µM (JAK2 kinase domain (JH1); compound at 10 μM, ATP 10 μM) [%] | inhibition at 10 µM (Tyk2 kinase domain (DH1); 10 μM compound, 10 μM ATP) [%] | inhibition at 10 µM (JAK2 kinase domain (JH1); 10 μM compound, 10 μM ATP) [%]
CNc1cc(Nc2cccn([C@@H]3CCCC[C@@H]3OC)c2=O)nc2c(C(=O)N[C@H]3CC[C@@H]3OC)cnn12 [I-1127] | > 10 | A (percent inhibition at 10 μM lower than 50) | A (percent inhibition at 10 μM lower than 50) | – | – | – | –
CNc1cc(Nc2cc(Cl)cn(-c3ccnc(C)n3)c2=O)nc2c(C(=O)NC3CC3)cnn12 [I-316] | < 0.2 | – | – | < 50 | < 50 | – | –
Cc1nccc(-n2cccc(Nc3cc(N)n4ncc(C(N)=O)c4n3)c2=O)n1 [I-42] | 1 to 10 | – | – | < 50 | < 50 | – | –
CNc1cc(Nc2cccn(CCOC3CC3)c2=O)nc2c(C(=O)NC3CC3)cnn12 [I-453] | 0.2 to 1 | – | – | < 50 | < 50 | – | –
CNc1cc(Nc2cc(Cl)cnc2OC(C)C)nc2c(C(=O)NC3CC3)cnn12 [I-150] | 0.2 to 1 | – | – | < 50 | < 50 | – | –
CNc1cc(Nc2cccc(C3CCCCO3)n2)nc2c(C(=O)NCC3(CO)CC3)cnn12 (stereo not drawn) [I-530] | 0.2 to 1 | – | – | < 50 | < 50 | – | –
CNc1cc(Nc2cccnc2OCCOC)nc2c(C(=O)NC3CC3)cnn12 [I-218] | < 0.2 | – | – | < 50 | < 50 | – | –
CNc1cc(Nc2cccn(-c3ccc(CCN4CCOCC4)cc3)c2=O)nc2c(C(=O)N[C@H]3C[C@H]3F)cnn12 [I-308] | < 0.2 | – | – | < 50 | < 50 | – | –
Nc1cc(Nc2cccnc2OC(F)(F)F)nc2c(C(=O)NC3CC3)cnn12 [I-113, 7-amino-N-cyclopropyl-5-((2-(trifluoromethoxy)pyridin-3-yl)amino)pyrazolo[1,5-a]pyrimidine-3-carboxamide] | 1 to 10 | – | – | > 90 | > 90 | – | –
CNc1cc(Nc2cccn(-c3cnco3)c2=O)nc2c(C(=O)N[C@H]3CC[C@H]3O)cnn12 [I-809] | 0.2 to 1 | A (percent inhibition at 10 μM lower than 50) | A (percent inhibition at 10 μM lower than 50) | – | – | – | –
CNc1cc(Nc2cccn([C@@H]3CCN(CCC#N)C3)c2=O)nc2c(C(=O)N[C@@H]3C[C@@H]3F)cnn12 [I-987] | < 0.2 | – | – | – | – | < 50 | < 50
CNc1cc(Nc2cccn([C@@H]3CCCOC3)c2=O)nc2c(C(=O)N[C@@H]3CC[C@@H](O)C3)cnn12 [I-739] | 0.2 to 1 | – | – | < 50 | < 50 | – | –
CNc1cc(Nc2cccn([C@H]3CCCC[C@H]3OC)c2=O)nc2c(C(=O)N[C@@H]3C[C@@H]3F)cnn12 [I-1045] | 0.2 to 1 | – | – | – | – | < 50 | < 50
CNc1cc(Nc2cccnc2OC2CCOCC2)nc2c(C(=O)NC3CC3)cnn12 [I-173] | 0.2 to 1 | – | – | < 50 | < 50 | – | –
CNc1cc(Nc2cccn([C@H]3CC[C@](C)(OC)CC3)c2=O)nc2c(C(=O)N[C@@H]3CC[C@H]3OC)cnn12 [I-1106] | 1 to 10 | – | – | – | – | < 50 | < 50
CNc1cc(Nc2cccnc2OC)nc2c(C(=O)NCCC(C)(C)O)cnn12 [I-420, N-(3-hydroxy-3-methylbutyl)-5-((2-methoxypyridin-3-yl)amino)-7-(methylamino)pyrazolo[1,5-a]pyrimidine-3-carboxamide] | 0.2 to 1 | – | – | < 50 | < 50 | – | –
CNc1cc(-c2nn(C3CCOCC3)c3ncccc23)nc2c(C(=O)N[C@@H]3C[C@@H]3F)cnn12 (stereo in doubt) [I-450, N-((1R,2S)-2-fluorocyclopropyl)-7-(methylamino)-5-(1-(tetrahydro-2H-pyran-4-yl)-1H-pyrazolo[3,4-b]pyridin-3-yl)pyrazolo[1,5-a]pyrimidine-3-carboxamide] | 0.2 to 1 | – | – | < 50 | < 50 | – | –
CNc1cc(Nc2cccn(-c3ccccn3)c2=O)nc2c(C(=O)NCC3(CO)CC3)cnn12 [I-684] | 0.2 to 1 | – | – | < 50 | < 50 | – | –

Compound | Kd [1] [nM] | Tyk2 JH1% Inhibition @ 10 μM (Tyk2 kinase domain (DH1); 10 μM compound, 10 μM ATP) | JAK2 JH1% Inhibition @ 10 μM (JAK2 kinase domain (JH1); 10 μM compound, 10 μM ATP) | inhibition at 10 µM (Tyk2 kinase domain (DH1); compound at 10 μM, ATP 10 μM) [%] | inhibition at 10 µM (JAK2 kinase domain (JH1); compound at 10 μM, ATP 10 μM) [%] | inhibition at 10 µM (Tyk2 kinase domain (DH1); 10 μM compound, 10 μM ATP) [%] | inhibition at 10 µM (JAK2 kinase domain (JH1); 10 μM compound, 10 μM ATP) [%]
CNc1cc(Nc2cccc([C@@H]3CCCOC3)n2)nc2c(C(=O)N[C@H]3CC[C@H]3O)cnn12 [I-644] | < 0.2 | – | – | < 50 | < 50 | – | –
[2H]C([2H])([2H])Oc1ncc(F)cc1Nc1cc(NC)n2ncc(C(=O)N[C@H]3C[C@H]3F)c2n1 [I-289] | < 0.2 | – | – | < 50 | < 50 | – | –
CNc1cc(Nc2cccn(-c3ccc(N4CCOCC4)cc3)c2=O)nc2c(C(N)=O)cnn12 [I-10] | < 0.2 | – | – | < 50 | < 50 | – | –
CNc1cc(Nc2cccnc2OC)nc2c(C(N)=O)cnn12 [I-24] | < 0.2 | – | – | < 50 | < 50 | – | –
CNc1cc(-c2cn(CCN3CCCCC3)c3ncccc23)nc2c(C(=O)NC3CC3)cnn12 [I-584, N-cyclopropyl-7-(methylamino)-5-(1-(2-(piperidin-1-yl)ethyl)-1H-pyrrolo[2,3-b]pyridin-3-yl)pyrazolo[1,5-a]pyrimidine-3-carboxamide] | < 0.2 | – | – | < 50 | < 50 | – | –
CNc1cc(-c2cn(CCN3CCCCC3)c3ncccc23)nc2c(C(N)=O)cnn12 [I-797] | < 0.2 | – | – | < 50 | < 50 | – | –
CNc1cc(Nc2cc(Cl)cn(-c3cn(C4CC4)nc3C)c2=O)nc2c(C(=O)NC3CCC3)cnn12 [I-179] | 0.2 to 1 | – | – | < 50 | < 50 | – | –
CNc1cc(-c2cn(CCN3CCN(C)CC3)c3ncccc23)nc2c(C(=O)N[C@@H]3CC[C@H]3OC)cnn12 [I-953] | 0.2 to 1 | – | – | – | – | < 50 | < 50
CNc1cc(Nc2cccc(N3CCCC3)n2)nc2c(C(=O)N[C@H]3C[C@H]3F)cnn12 [I-383] | 0.2 to 1 | – | – | < 50 | < 50 | – | –
CNc1cc(Nc2cccnc2OC)nc2c(C(=O)N[C@@H]3CC[C@]3(C)O)cnn12 [I-1016, N-((1R,2S)-2-hydroxy-2-methylcyclobutyl)-5-((2-methoxypyridin-3-yl)amino)-7-(methylamino)pyrazolo[1,5-a]pyrimidine-3-carboxamide] | 1 to 10 | – | – | – | – | < 50 | < 50
CNc1cc(Nc2cccn(-c3nc(C)c(C)s3)c2=O)nc2c(C(=O)NC3CCC3)cnn12 [I-293] | 0.2 to 1 | – | – | < 50 | < 50 | – | –
CNc1cc(Nc2cc(C)nc(N3CCC[C@@H](O)C3)c2)nc2c(C(N)=O)cnn12 [I-61] | 0.2 to 1 | – | – | < 50 | < 50 | – | –
CNc1cc(-c2cn(C3CCOCC3)c3ncccc23)nc2c(C(=O)N[C@H]3CC[C@@H]3OC)cnn12 [I-1065] | < 0.2 | – | – | – | – | < 50 | < 50
CNc1cc(Nc2cccn(-c3ccnn3C)c2=O)nc2c(C(=O)N[C@H]3C[C@H]3F)cnn12 [I-335] | < 0.2 | – | – | < 50 | < 50 | – | –
CNc1cc(Nc2cccn([C@H]3CCCC[C@H]3OC)c2=O)nc2c(C(=O)NC3CC3)cnn12 [I-1044] | 0.2 to 1 | – | – | – | – | < 50 | < 50
CNc1cc(Nc2cc(C)cn(-c3cnn(C4CC4)c3C)c2=O)nc2c(C(=O)NC3CCC3)cnn12 [I-159] | 0.2 to 1 | – | – | < 50 | < 50 | – | –
CNc1cc(Nc2cccnc2OC2CC2)nc2c(C(=O)N[C@H]3CC[C@H]3O)cnn12 [I-402] | 0.2 to 1 | – | – | < 50 | < 50 | – | –
CNc1cc(Nc2cccn(-c3ccc(C4CC4)nn3)c2=O)nc2c(C(=O)NC3CC3)cnn12 [I-241] | < 0.2 | – | – | < 50 | < 50 | – | –
